Laboratory results reported in US9637469B2, “Pyridine derivative” (Teijin Pharma Limited, priority 2012, dated 2017).

Biological target: T1, human URAT1 (Homo sapiens, UniProt Q96S37)
T1 construct: Full-length cDNA of human URAT1 (hURAT1)
T1 sequence (Q96S37 1-553): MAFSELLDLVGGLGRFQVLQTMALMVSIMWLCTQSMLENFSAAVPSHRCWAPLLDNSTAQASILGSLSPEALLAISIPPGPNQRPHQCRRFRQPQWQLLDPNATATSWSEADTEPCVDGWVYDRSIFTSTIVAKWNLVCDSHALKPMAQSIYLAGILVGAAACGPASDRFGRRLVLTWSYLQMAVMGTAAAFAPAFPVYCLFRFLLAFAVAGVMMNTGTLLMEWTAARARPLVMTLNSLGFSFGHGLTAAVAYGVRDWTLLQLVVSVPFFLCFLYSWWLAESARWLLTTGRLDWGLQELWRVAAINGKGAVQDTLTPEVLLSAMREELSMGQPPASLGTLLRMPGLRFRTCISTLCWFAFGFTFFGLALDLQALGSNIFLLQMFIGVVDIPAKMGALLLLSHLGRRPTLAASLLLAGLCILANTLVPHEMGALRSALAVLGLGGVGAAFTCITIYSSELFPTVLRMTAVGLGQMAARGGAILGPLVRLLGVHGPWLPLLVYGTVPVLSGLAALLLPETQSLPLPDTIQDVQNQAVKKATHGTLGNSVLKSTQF
Assay: Test for inhibition of uric acid transport using human URAT1-expressing cells;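 further: three stars up to 0.2 µM two stars 0.2-2 µM one star 2-20 µM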
Type: cell-based
Conditions: HEK 293 cells expressing human URAT1, 14C-labeled uric acid 25 μM, uptake 37° C. for 5 min; for IC50: read-out: Inhibitory Activity (IC50 of uric acid transport inhibition)
Procedure: (1) Preparation of the Test Compound
The test compound was dissolved in DMSO (produced by Sigma) to a concentration of 20 mM and was subsequently used by diluting to desired concentrations.
(2) Test for Inhibition of Uric Acid Transport Using Human URAT1-Expressing Cells;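 further: three stars up to 0.2 µM two stars 0.2-2 µM one star 2-20 µM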
Full-length cDNA of human URAT1 (hURAT1) (produced by OriGene Technologies, Inc., NCBI Reference Sequence: NM 144585) was subcloned into an expression vector, pCMV6-Kan/Neo (produced by OriGene Technologies, Inc.), and hURAT1 gene was transfected into human embryonic kidney-derived cells (HEK 293 cells) by liposome method using Lipofectamine 2000 (produced by Invitrogen Corporation), whereupon HEK 293 cells expressing human URAT1 gene were screened by its Geneticin resistance. By a method similar to the following method, functional expression of human URAT1 gene was confirmed by using transport of ^14C-labeled uric acid into the cells as an index.
The HEK 293 cells expressing human URAT1 were seeded in a 24-well cell culture dish to a density of 3×10^5 cells/mL/well and were cultured in Dulbecco's modified Eagle's medium (D-MEM medium) containing 10% fetal bovine serum at 37° C. for 2 days. Thereafter, the following test for inhibition of uric acid transport was performed.
After the medium was removed by aspiration from each well, the medium was replaced with a solution obtained by substituting NaCl in Hank's Balanced Salt Solution (HBSS) with Na gluconate (hereinafter, HBSS/Na-gluconate) and the cells were preincubated at 37° C. for about 10 minutes. HBSS/Na-gluconate was removed by aspiration and a ^14C-uric acid solution that was warmed at 37° C. in advance containing various concentrations of the Example compound described in (1) and a radioactive ligand (^14C-labeled uric acid; final concentration 25 μM) was added and an uptake reaction was carried out by incubating at 37° C. for 5 min. After the incubation, ^14C-labeled uric acid solution was removed by aspiration and the cells were washed three times with ice-cold HBSS. The HEK 293 cells expressing human URAT1 were lysed in 0.2 mol/L aqueous NaOH (hereafter, the cell sample) and the cell samples were collected. The cell sample and a liquid scintillation liquid, ULTIMA GOLD (produced by PerkinElmer, Inc.) were mixed and the radioactivity was measured by a liquid scintillation counter (Beckman Coulter, Inc.).
The uric acid transport rate of the Example compound at each concentration (% of control uptake) was calculated relative to the radioactivity (radioactivity in human URAT1 expressing HEK 293 cells without addition of the Example compound (DMSO addition)) showing URAT1-specific uric acid transport as 100%, and the concentration (IC50) of the Example compound at which the uric acid transport rate is inhibited by 50% was determined. In addition, the symbols (*, **, and ***) in the table represent the following inhibitory activity values: • IC50≦_ 0.2 μM: *** • 0.2 μM<IC50≦2 μM: ** • 2 μM<IC50≦20 μM: *

CCOC(=O)c1c(C)nc(-c2cccnc2)n1Cc1cccc2ccccc12 [Compound A3, ethyl 4-methyl-1-(naphthalen-1-ylmethyl)-2-(pyridin-3-yl)-1H-imidazole-5-carboxylate]
Inhibitory Activity (IC50 of uric acid transport inhibition): * *

Cc1ccc2ccccc2c1Cn1c(-c2cccnc2)nc(C)c1C(=O)O [Compound A4]
IC50: 2 to 20 µM

Cc1nc(-c2cccnc2)n(Cc2csc3cccc(C)c23)c1C(=O)O [Compound A5]
IC50: 2 to 20 µM

Cc1nc(-c2cccnc2)n(Cc2csc3cccc(C(F)(F)F)c23)c1C(=O)O [Compound A6, 4-methyl-2-(pyridin-3-yl)-1-((4-(trifluoromethyl)benzo[b]thiophen-3-yl)-methyl)-1H-imidazole-5-carboxylic acid]
Inhibitory Activity (IC50 of uric acid transport inhibition): * *

Cc1nc(-c2cccnc2)n(Cc2csc3cccc(Br)c23)c1C(=O)O [Compound A8, 1-((4-bromobenzo[b]thiophen-3-yl)methyl)-4-methyl-2-(pyridin-3-yl)-1H-imidazole-5-carboxylic acid]
Inhibitory Activity (IC50 of uric acid transport inhibition): * *

O=C(O)c1c(Cl)nc(-c2cccnc2)n1Cc1cccc2ccccc12 [Compound A9, 4-chloro-1-(napthalen-1-ylmethyl)-2-(pyridin-3-yl)-1H-imidazole-5-carboxylic acid]
Inhibitory Activity (IC50 of uric acid transport inhibition): * *

CCc1nc(-c2cccnc2)n(Cc2cccc3ccccc23)c1C(=O)O [Compound A10, 4-ethyl-1-(naphthalen-1-ylmethyl)-2-(pyridin-3-yl)-1H-imidazole-5-carboxylic acid]
Inhibitory Activity (IC50 of uric acid transport inhibition): * *

O=C(O)c1c(C2CC2)nc(-c2cccnc2)n1Cc1cccc2ccccc12 [Compound A11, 4-cyclopropyl-1-(napthalen-1-ylmethyl)-2-(pyridin-3-yl)-1H-imidazole-5-carboxylic acid]
Inhibitory Activity (IC50 of uric acid transport inhibition): * *

O=C(O)c1cnc(-c2cccnc2)n1Cc1cccc2ccccc12 [Compound A12]
IC50: 2 to 20 µM

Cc1nc(-c2cccnc2)n(Cc2csc3ccccc23)c1C(=O)O [Compound A16]
IC50: 2 to 20 µM

Cc1nc(-c2cccnc2)n(Cc2ccc(C)c3ccccc23)c1C(=O)O [Compound A17, 4-methyl-1-((4-methylnaphthalen-1-yl)methyl)-2-(pyridin-3-yl)-1H-imidazole-5-carboxylic acid]
Inhibitory Activity (IC50 of uric acid transport inhibition): * *

Cc1ccc(Cn2c(-c3cccnc3)nc(C3CC3)c2C(=O)O)c2ccccc12 [Compound A18, 4-cyclopropyl-1-((4-methylnaphthalen-1-yl)methyl)-2-(pyridin-3-yl)-1H-imidazole-5-carboxylic acid]
Inhibitory Activity (IC50 of uric acid transport inhibition): * * *

O=C(O)c1c(C(F)(F)F)nc(-c2cccnc2)n1Cc1csc2ccccc12 [Compound A22, 1-(benzo[b]thiophen-3-ylmethyl)-2-(pyridin-3-yl)-4-(trifluoromethyl)-1H-imidazole-5-carboxylic acid]
Inhibitory Activity (IC50 of uric acid transport inhibition): * *

Cc1ccc(Cn2c(-c3cccnc3)nc(Cl)c2C(=O)O)c2ccccc12 [Compound A23, 4-chloro-1-((4-methylnaphthalen-1-yl)methyl)-2-(pyridin-3-yl)-1H-imidazole-5-carboxylic acid]
Inhibitory Activity (IC50 of uric acid transport inhibition): * *

CC(C)c1nc(-c2cccnc2)n(Cc2cccc3ccccc23)c1C(=O)O [Compound A24, 4-isopropyl-1-(naphthalen-1-ylmethyl)-2-(pyridin-3-yl)-1H-imidazole-5-carboxylic acid]
Inhibitory Activity (IC50 of uric acid transport inhibition): * *

Cc1ccc(Cn2c(-c3cccnc3)nc(C(C)C)c2C(=O)O)c2ccccc12 [Compound A25, 4-isopropyl-1-((4-methylnaphthalen-1-yl)methyl)-2-(pyridin-3-yl)-1H-imidazole-5-carboxylic acid]
Inhibitory Activity (IC50 of uric acid transport inhibition): * * *

O=C(O)c1c(C(F)(F)F)nc(-c2cccnc2)n1Cc1csc2cccc(Cl)c12 [Compound A27, 1-((4-chlorobenzo[b]thiophen-3-yl)methyl)-2-(pyridin-3-yl)-4-(trifluoromethyl)-1H-imidazole-5-carboxylic acid]
Inhibitory Activity (IC50 of uric acid transport inhibition): * *

O=C(O)c1c(C(F)(F)F)nc(-c2cccnc2)n1Cc1cccc2cccc(Br)c12 [Compound A28]
IC50: 2 to 20 µM

Cc1cccc2cccc(Cn3c(-c4cccnc4)nc(C(F)(F)F)c3C(=O)O)c12 [Compound A30]
IC50: 2 to 20 µM

O=C(O)c1c(C(F)(F)F)nc(-c2cccnc2)n1Cc1csc2cccc(Br)c12 [Compound A31, 1-((4-bromobenzo[b]thiophen-3-yl)methyl)-2-(pyridin-3-yl)-4-(trifluoromethyl)-1H-imidazole-5-carboxylic acid]
Inhibitory Activity (IC50 of uric acid transport inhibition): * *

O=C(O)c1c(C(F)(F)F)nc(-c2cccnc2)n1Cc1csc2cccc(C(F)(F)F)c12 [Compound A32]
IC50: 2 to 20 µM

O=C(O)c1c(C2CC2)nc(-c2cccnc2)n1Cc1csc2cccc(Cl)c12 [Compound A33, 1-((4-chlorobenzo[b]thiophen-3-yl)methyl)-4-cyclopropyl-2-(pyridin-3-yl)-1H-imidazole-5-carboxylic acid]
Inhibitory Activity (IC50 of uric acid transport inhibition): * *

O=C(O)c1c(C2CC2)nc(-c2cccnc2)n1Cc1csc2cccc(Br)c12 [Compound A34, 1-((4-bromobenzo[b]thiophen-3-yl)methyl)-4-cyclopropyl-2-(pyridin-3-yl)-1H-imidazole-5-carboxylic acid]
Inhibitory Activity (IC50 of uric acid transport inhibition): * *

O=C(O)c1c(C2CC2)nc(-c2cccnc2)n1Cc1csc2cccc(C(F)(F)F)c12 [Compound A35, 4-cyclopropyl-2-(pyridin-3-yl)-1-((4-(trifluoromethyl)benzo[b]thiophen-3-yl)methyl)-1H-imidazole-5-carboxylic acid]
Inhibitory Activity (IC50 of uric acid transport inhibition): * *

O=C(O)c1c(C2CC2)nc(-c2cccnc2)n1Cc1csc2ccccc12 [Compound A36, 1-(benzo[b]thiophen-3-ylmethyl)-4-cyclopropyl-2-(pyridin-3-yl)-1H-imidazole-5-carboxylic acid]
Inhibitory Activity (IC50 of uric acid transport inhibition): * *

CC(C)c1nc(-c2cccnc2)n(Cc2csc3cccc(Cl)c23)c1C(=O)O [Compound A37, 1-((4-chlorobenzo[b]thiophen-3-yl)methyl)-4-isopropyl-2-(pyridin-3-yl)-1H-imidazole-5-carboxylic acid]
Inhibitory Activity (IC50 of uric acid transport inhibition): * * *

CC(C)c1nc(-c2cccnc2)n(Cc2csc3cccc(Br)c23)c1C(=O)O [Compound A38, 1-((4-bromobenzo[b]thiophen-3-yl)methyl)-4-isopropyl-2-(pyridin-3-yl)-1H-imidazole-5-carboxylic acid]
Inhibitory Activity (IC50 of uric acid transport inhibition): * * *

CC(C)c1nc(-c2cccnc2)n(Cc2csc3cccc(C(F)(F)F)c23)c1C(=O)O [Compound A39, 4-isopropyl-2-(pyridin-3-yl)-1-((4-(trifluoromethyl)benzo[b]thiophen-3-yl)methyl)-1H-imidazole-5-carboxylic acid]
Inhibitory Activity (IC50 of uric acid transport inhibition): * * *

CC(C)c1nc(-c2cccnc2)n(Cc2csc3ccccc23)c1C(=O)O [Compound A40, 1-(benzo[b]thiophen-3-ylmethyl)-4-isopropyl-2-(pyridin-3-yl)-1H-imidazole-5-carboxylic acid]
Inhibitory Activity (IC50 of uric acid transport inhibition): * *
